# Results taken from US20240217968A1, “PHARMACEUTICAL COMPOUND” (DUKE STREET BIO LIMITED, priority 2021, published 2024).
# Molecular target: T1, recombinant human Flag-tagged PARP7 (amino acids 456-657) (Homo sapiens, UniProt Q7Z3E1)
# T1 construct: recombinant human Flag-tagged PARP7 (amino acids 456-657)
# T1 sequence (Q7Z3E1 456-657): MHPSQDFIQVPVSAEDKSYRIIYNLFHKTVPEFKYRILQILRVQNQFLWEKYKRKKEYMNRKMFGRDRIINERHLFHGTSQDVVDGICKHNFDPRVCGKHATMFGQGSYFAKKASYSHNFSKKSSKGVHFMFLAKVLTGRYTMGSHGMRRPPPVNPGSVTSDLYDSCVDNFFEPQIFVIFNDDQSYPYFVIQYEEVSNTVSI
# Assay: PARP7 biochemical DELFIA assay (auto-MARylation)
# Details: DELFIA readout, IC50 class
# In short: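 Readout is DELFIA time-resolved Eu fluorescence (Ex337 nm, Em620 nm) of biotin-ADP-ribose on immobilised Flag-tagged PARP7 456-657. Enzyme (12.5-37.5 nM as added) sat 30 min with compound before biotin-NAD+ (15 μM solution, pH 7.5 HEPES buffer) started 2-3 h room-temperature self-modification, stopped with excess NAD+.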
row,Compound,IC50 [nM]
1,N#Cc1ccc(N2CCCN(C(=O)c3cccc(Cc4cccc5c(=O)[nH]ncc45)c3)CC2)nc1 [Compound 28],100 to 1000
2,N#Cc1ccc(N2CCN(C(=O)c3cccc(Oc4cccc5c(=O)[nH]ncc45)c3)CC2)nc1 [Compound 29],100 to 1000
3,N#Cc1ccc(N2CCN(C(=O)c3cccc(Nc4cccc5c(=O)[nH]ncc45)c3)CC2)nc1 [Compound 30],≤ 100
4,N#Cc1ccc(N2CCN(C(=O)c3ccc(Cc4cccc5c(=O)[nH]ncc45)cc3)CC2)nc1 [Compound 32],1000 to 10000
5,CC(C)(COCC(=O)N1CCN(c2ncc(C(F)(F)F)cn2)CC1)Oc1cccc2c(=O)[nH]ncc12 [Compound 34],1000 to 10000
6,O=C(CCCCOc1cccc2c(=O)[nH]ncc12)N1CCN(c2ncc(C(F)(F)F)cn2)CC1 [Compound 35],100 to 1000
7,O=C(NCCCOc1cccc2c(=O)[nH]ncc12)N1CCN(c2ncc(C(F)(F)F)cn2)CC1 [Compound 36],1000 to 10000
8,O=C(CCCOc1cccc2c(=O)[nH]ncc12)N1CCN(c2ncc(C(F)(F)F)cn2)CC1 [Compound 37],1000 to 10000
9,N#Cc1ccc(N2CCN(C(=O)Cc3cccc(Cc4cccc5c(=O)[nH]ncc45)c3)CC2)nc1 [Compound 38],1000 to 10000
10,N#Cc1ccc(N2CCN(S(=O)(=O)c3cccc(Cc4cccc5c(=O)[nH]ncc45)c3)CC2)nc1 [Compound 39],1000 to 10000
11,N#Cc1ccc(N2CCN(C(=O)c3cccc(COc4cccc5c(=O)[nH]ncc45)c3)CC2)nc1 [Compound 40],100 to 1000
12,N#Cc1ccc(N2CCN(C(=O)c3ccc(COc4cccc5c(=O)[nH]ncc45)cc3)CC2)nc1 [Compound 41],1000 to 10000
13,N#Cc1ccc(N2CCN(C(=O)c3cccc(OCCc4cccc5c(=O)[nH]ncc45)c3)CC2)nc1 [Compound 42],≤ 100
14,CN(CCOCC(=O)N1CCN(c2ncc(C(F)(F)F)cn2)CC1)c1cccc2c(=O)[nH]ncc12 [Compound 43],100 to 1000
15,N#Cc1ccc(N2CCN(C(=O)CCOCCN3CCCc4c3cn[nH]c4=O)CC2)nc1 [Compound 44],≤ 100
16,O=C(CCOCCc1cccc2c(=O)[nH]c(=O)[nH]c12)N1CCN(c2ncc(C(F)(F)F)cn2)CC1 [Compound 45],≤ 100
17,N#Cc1ccc(N2CCN(C(=O)c3cccc(Cc4cccc5c4NCNC5=O)c3)CC2)nc1 [Compound 46],100 to 1000
18,O=C1NCNc2c(OCCOCC(=O)N3CCN(c4ncc(C(F)(F)F)cn4)CC3)cccc21 [Compound 47],1000 to 10000
19,O=C1NCNc2c(CCOCCC(=O)N3CCN(c4ncc(C(F)(F)F)cn4)CC3)cccc21 [Compound 48],≤ 100
20,CNCc1cc2c(=O)[nH]ncc2n1CCOCCC(=O)N1CCN(c2ncc(C(F)(F)F)cn2)CC1 [Compound 49],100 to 1000
21,"O=C(CCOCCn1ncc2c(=O)[nH]ncc21)N1CCN(c2ncc(C(F)(F)F)cn2)CC1 [Compound 50, 1-(2-(3-oxo-3-(4-(5-(trifluoromethyl)pyrimidin-2-yl)piperazin-1-yl)propoxy)ethyl)-1,5-dihydro-4H-pyrazolo[3,4-d]pyridazin-4-one]",≤ 100
22,O=C(CCOCCn1cnc2c(=O)[nH]ncc21)N1CCN(c2ncc(C(F)(F)F)cn2)CC1 [Compound 51],100 to 1000
23,O=C(CCOCCc1cccc2c(=O)[nH]nnc12)N1CCN(c2ncc(C(F)(F)F)cn2)CC1 [Compound 52],100 to 1000
24,O=C(CCOCCn1ccc2c(=O)[nH]cnc21)N1CCN(c2ncc(C(F)(F)F)cn2)CC1 [Compound 53],100 to 1000
25,O=C1NCc2c(CCOCCC(=O)N3CCN(c4ncc(C(F)(F)F)cn4)CC3)cccc21 [Compound 54],100 to 1000
26,CN1CCN(CCOCCC(=O)N2CCN(c3ncc(C(F)(F)F)cn3)CC2)c2cn[nH]c(=O)c21 [Compound 55],≤ 100
27,O=C1NCCc2c1ccn2CCOCCC(=O)N1CCN(c2ncc(C(F)(F)F)cn2)CC1 [Compound 56],1000 to 10000
28,N#Cc1ccc(N2CCN(C(=O)c3cccc(Cc4cc(Cl)cc5c(=O)[nH]ncc45)c3)CC2)nc1 [Compound 57],≤ 100
29,O=C(NCCOc1cccc2c(=O)[nH]ncc12)N1CCN(c2ncc(C(F)(F)F)cn2)CC1 [Compound 58],100 to 1000
